According to patent US10168323B2, “Compositions and methods for capture of cellular targets of bioactive agents” (Promega Corporation, priority 2013, dated 2019):
“And” between values parts separate entries of the source, which are not always exact repeats. Identical values can stand only once.

How the values were obtained:
NANOLUC-DHFR fusion = target: T1, NANOLUC-DHFR fusion (Homo sapiens, UniProt P00374); assay: Binding affinity to DHFR in live cells using BRET; type: cell-based; details: live HEK293 cells, in the presence of 1 μM PBI-4890
T1 construct: NANOLUC luciferase (reporter fusion partner); expressed in transfected cells; host or cells: HEK293
T1 sequence (P00374 1-187): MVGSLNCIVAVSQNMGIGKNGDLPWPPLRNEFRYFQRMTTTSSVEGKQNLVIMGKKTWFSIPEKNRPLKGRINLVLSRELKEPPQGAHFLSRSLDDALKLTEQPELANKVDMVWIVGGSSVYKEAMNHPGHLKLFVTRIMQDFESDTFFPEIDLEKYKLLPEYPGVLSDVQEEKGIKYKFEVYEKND
Protocol: Binding affinity to DHFR in live cells was tested using BRET. HEK293 cells in wells of a 96-well plate were transfected using PEI with plasmid DNA encoding a NANOLUC-DHFR fusion. The DNA was diluted 1:50 with a promoterless carrier DNA plasmid (PSI) to a final concentration of 80 ng total DNA per well. Twenty-four hours post-transfection, cells were serum starved for additional 24 hours and then treated with serially diluted PBI-4848 or PBI-5015 in the presence of 1 μM PBI-4890 (TOM-methotrexate derivative). After two hours of equilibration binding, furimazine (a coelenterazine derivative; Promega Corp.) was added to a final concentration of 20 μM, and BRET measured on a Varioskan luminometer.

[1] = target: T2, NANOLUC:DHFR (Nluc:DHFR) fusion (Homo sapiens, UniProt P00374); assay: Pull-down of NANOLUC:DHFR from live HEK293 cells onto HALOTAG protein beads; type: cell-based; details: 10 μM conjugate, release with 150 μM methotrexate
T2 construct: NANOLUC luciferase (reporter fusion partner); expressed in transfected cells; host or cells: HEK293
T2 sequence (P00374 1-187): T1 sequence (P00374 1-187)
Protocol: The DNA was diluted 1:50 with a promoterless carrier DNA plasmid (PSI) to a final concentration of 80 ng total DNA per well. Twenty-four hours post-transfection, cells were serum starved for additional 24 h and then incubated with 10 μM PBI-4848 or PBI-5015 while control cells were not treated with the conjugated drug. Following equilibration binding of 2 h, the media was removed, and the cells quickly washed with PBS and lysed in detergent-based lysis buffer for 10 min. Cell lysates were then transferred to wells of a 96-well plate containing 0.5 μl settled paramagnetic HALOTAG protein beads and incubated with shaking for 45 min. Following binding, the unbound fraction was removed, the HALOTAG protein paramagnetic beads washed, 150 μM unconjugated methotrexate added, and the captured NANOLUC:DHFR specifically released from the beads by competition with the unconjugated methotrexate for 60 min. The released NANOLUC:DHFR (+PBI5015 or +PBI 4848) and control samples were detected by NANOGLO luciferase detection reagent.

DHFR = target: T3, DHFR (Homo sapiens, UniProt P00374); assay: Endogenous target pull-down from HEK293 cells (western blot, mass spec); type: cell-based; details: 10 uM conjugate, western blot and mass spec
T3 construct: isolate, e.g., pull-down, endogenous targets from cells; endogenous in cells; host or cells: HEK293
T3 sequence (P00374 1-187): T1 sequence (P00374 1-187)
Protocol: HEK293 cells were plated into wells of a 6-well plate (2.5×10^5 cells/well). 48 hours post plating, a final concentration of 10 uM of Methotrexate chloroalkane (PBI-5015) was added to 2 wells while control cells were not treated with the drug conjugate. Following equilibration binding for 2 h, the media was removed, and the cells quickly washed with PBS and lysed in detergent-based lysis buffer for 10 min. Cell lysates were then transferred to an Eppendorf® tube containing 12.5 ul of settled paramagnetic HALOTAG protein beads and incubated with shaking for 15 min. Following binding, the unbound fraction was removed, the HALOTAG paramagnetic beads washed 3×, and the captured targets specifically released from the beads by competition with 150 μM unconjugated methotrexate for 60 mins. The released targets were subjected to mass spec analysis as well as western blot analysis using an anti-DHFR antibody (Sigma). […] Furthermore, although the expression level of DHFR in the cells is very low (not detected in lysate by western blot analysis), it was still efficiently captured as indicated by the western blot analysis (FIG. 8A) and mass spec analysis (FIG. 8B).

[2] = target: T4, NANOLUC-p38 alpha fusion protein (Homo sapiens, UniProt Q16539); assay: Pull-down and release of NANOLUC-p38 alpha fusion from HEK293 cell lysates; type: binding
T4 construct: NANOLUC luciferase (reporter fusion partner); expressed in transfected cells; host or cells: HEK293
Protocol: In this example, BIRB-chloroalkane conjugate (PBI-4834) and BIRB chloroalkane conjugate containing a cleavable linker (PBI-5131) were utilized to pull-down a NANOLUC-p38 alpha fusion protein from HEK293 cell lysates. Lysate of cells expressing NANOLUC-p38 fusion were incubated with 1 μM PBI-4834 or PBI-5131 (final concentration) while control lysates were not treated with the conjugated drugs. Following equilibration binding for 2 h, the lysates were transferred to wells of a 96-well plate containing 0.5 μl settled paramagnetic HALOTAG protein beads and incubated with shaking for 45 min. Following binding the unbound fraction was removed, the HALOTAG protein paramagnetic beads were washed 3×, and the captured NANLUC-p38 alpha fusion specifically released from the beads by one of two methods: • 1. 150 μM unconjugated BIRB796 was used to compete for binding with the conjugated BIRB796 on the NANOLUC-p38 alpha fusion for 60 min. • 2. The NANOLUC-p38 alpha fusion was rapidly released through 10 min chemical cleavage of the chloroalkane linker with 10 mM of sodium hydrosulfite (PBI-5131 is a chloroalkane cleavable linker). The released NANOLUC-p38 alpha (+PBI4834/+PBI5131) and control (-drug) were detected with NANOGLO luciferase detection reagent.

[3] = target: T5, NANOLUC-p38 fusion protein (Homo sapiens, UniProt Q16539); assay: Pull-down of NANOLUC-p38 fusion from cell lysates with HALOTAG protein dimer on HALOLINK plates; type: binding; details: p38-Nluc expressing cells treated with drug, listed as BIRB-chloroalkane
T5 construct: NANOLUC luciferase (reporter fusion partner); expressed in transfected cells
Protocol: Different amounts of a HALOTAG protein dimer (dimer of SEQ ID NO: 1) were added to cell lysates expressing a NANOLUC-p38 fusion protein (e.g., reporter/cellular-target fusion) which have or have not been treated with BIRB-chloroalkane (e.g., bioactive-agent/capture-ligand conjugate) as shown in Table 1. After 15 minute incubation, the samples were placed into wells of white, 96-well polystyrene plates activated with HALOTAG ligand (HALOLINK plates; Promega Corp.) and further incubated for 45 minutes. The wells were then washed PBS+0.05% Tween-20 (PBST). Then, 50 ul PBS followed by 50 ul of NANOGLO luciferase detection reagent was added to the wells, and luminescence measured.
Table 2 indicates differences in luminescence in samples with and without HALOTAG dimer (e.g., dimer of SEQ ID NO: 1) that indicate specific pull-down of the NANOLUC-p38 fusion protein.

[4] = target: T4, NANOLUC-p38 alpha fusion protein; assay: Pull-down of NANOLUC-p38 alpha fusion from living HEK293 cells onto HALOTAG protein beads; type: cell-based
Protocol: In this example, a BIRB-chloroalkane conjugate (PBI-4834, see below) was utilized to pull down a NANOLUC-p38 alpha fusion protein from living cells.
HEK293 cells in wells of a 96-well plate were transfected using PEI with plasmid DNA encoding NANOLUC-p38 fusion. Twenty-four hours post-transfection, cells were incubated with a final concentration of 10 μM PBI-4834 while control cells were not treated with the conjugated drug. Following equilibration binding of 2 hours, the media was removed, cells were quickly washed with PBS and lysed in a detergent-based lysis buffer for 10 minutes. The cell lysates were then transferred to wells of a 96-well plate which contained 0.5 μl settled paramagnetic HALOTAG protein beads (Promega Corp.) and incubated with shaking for 15-45 minutes. Following binding, the unbound fraction was removed and the HALOTAG protein paramagnetic beads were washed. 150 uM unconjugated BIRB796 was then added and the captured NANOLUC-p38 alpha fusion was specifically released from the beads by competition with the unconjugated BIRB796 for 60 minutes. The released NANOLUC-p38 alpha fusion protein (+PBI-4834) and control (−PBI4834) was detected using NANOGLO luciferase reagent (Promega Corp.).

p38 alpha = target: T6, p38 alpha (Homo sapiens, UniProt Q16539); assay: Endogenous target pull-down from HEK293 cells (western blot, mass spec); type: cell-based; details: 10 uM conjugate, western blot and mass spec
T6 construct: isolate, e.g., pull-down, endogenous targets from cells; endogenous in cells; host or cells: HEK293
Protocol: HEK293 cells were plated in a 6 well plate (2.5×10^5 cells). 48 hours post plating, a final concentration of 10 uM of BIRB-chloroalkane (PBI-4834) was added to 2 wells while control cells were not treated with the drug conjugate. Following equilibration binding for 2 h, the media was removed, and the cells were quickly washed with PBS and lysed in detergent-based lysis buffer for 10 min. Cell lysates were then transferred to an EPPENDORF tube containing 12.5 ul of settled paramagnetic HALOTAG protein beads and incubated with shaking for 15 min. Following binding, the unbound fraction was removed, the HALOTAG protein paramagnetic beads washed 3×, and the captured targets specifically released from the beads by competition with 150 μM unconjugated BIRB796 for 60 min. The released targets were subjected to mass spec analysis as well as western blot analysis using an anti-p38 alpha antibody (Abcam).

T4 sequence (Q16539 whole entry, the tested form may be a part): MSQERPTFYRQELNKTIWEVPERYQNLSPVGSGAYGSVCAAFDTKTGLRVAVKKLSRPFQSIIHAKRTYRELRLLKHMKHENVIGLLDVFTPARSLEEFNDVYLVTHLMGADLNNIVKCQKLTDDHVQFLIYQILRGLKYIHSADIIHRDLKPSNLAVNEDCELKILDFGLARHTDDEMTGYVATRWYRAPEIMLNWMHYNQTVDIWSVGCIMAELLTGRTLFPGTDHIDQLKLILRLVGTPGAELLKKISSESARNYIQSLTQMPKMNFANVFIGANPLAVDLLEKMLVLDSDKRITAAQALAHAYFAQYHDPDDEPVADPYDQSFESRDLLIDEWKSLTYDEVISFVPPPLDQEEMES
T5 sequence (Q16539 whole entry, the tested form may be a part): as above
T6 sequence (Q16539 whole entry): as the sequence (Q16539 whole entry, the tested form may be a part) above

CN(Cc1cnc2nc(N)nc(N)c2n1)c1ccc(C(=O)NC(CCC(=O)NCCCCCNC(=O)OCCOCCOCCOC(=O)NCCOCCOCCCCCCCl)C(=O)O)cc1 (stereo not shown) [PBI-5015]
affinity to DHFR (dose-response BRET curves) (NANOLUC-DHFR fusion): lower affinity | pull-down of Nluc:DHFR fusion [1]: efficiently pulled down | pull-down of endogenous DHFR (DHFR): specifically isolated

CC(C)(C)c1cc(NC(=O)Nc2ccccc2)n(-c2cccc(CNC(=O)CCCCCOc3ccc(/N=N/c4ccc(C(=O)NCCOCCOCCCCCCCl)cc4)c(O)c3)c2)n1 [PBI-5131]
specific capture after rapid release using chemical cleavage ([2]; 10 min cleavage with 10 mM sodium hydrosulfite): significant increase in specific capture

CN(Cc1cnc2nc(N)nc(N)c2n1)c1ccc(C(=O)NC(CCC(=O)NCCOCCOCCCCCCCl)C(=O)O)cc1 (stereo not shown) [PBI-4848]
affinity to DHFR (dose-response BRET curves) (NANOLUC-DHFR fusion): higher affinity

CC(C)(C)c1cc(NC(=O)Nc2ccccc2)n(-c2cccc(CNC(=O)CNC(=O)OCCOCCOCCOC(=O)NCCOCCOCCCCCCCl)c2)n1 [PBI-4834]
luminescence ([3]; 2 ug/well HALOTAG dimer): 236900 and 397958 and 431167 | luminescence ([3]; 6 ug/well HALOTAG dimer): 401205 and 538956 and 596504 | luminescence ([3]; 8 ug/well HALOTAG dimer): 395510 and 526903 and 610628 | luminescence ([3]; No HALOTAG dimer): 278085 and 275690 and 443682 | expressed fusion specifically captured to the beads ([4]; 10 μM conjugate, HEK293 cells, release with 150 uM BIRB796): 1% | signal over background of capture on HALOTAG protein beads ([4]; within 15 minutes of capture): high signal over background | pull-down efficiency of NANOLUC-p38 alpha ([2]; 1 μM conjugate, HEK293 cell lysate): significantly higher | pull-down of endogenous p38 alpha (p38 alpha): specifically isolated
